The values that follow come from patent US11155547B1, “Compounds for and methods of treating diseases” (Alterity Therapeutics Limited, priority 2020, dated 2021).

The first test deals with human neuroblastoma line BE(2)-M17 (M17) cells. As to the kind of experiment: Measurement of Fe efflux from cells (57Fe in media by ICP-MS). The test is classed as cell-based. As to conditions: Homo sapiens; M17 cells pre-loaded with 57Fe; compound 20 μM, 2 h; Fe in media as percentage increase relative to cell media in the absence of the compound; read-out: % Fe Efflux Range. As for the experimental part: Compounds of the current invention were assessed for their ability to efflux iron (Fe) from a cell using the following protocol. The human neuroblastoma line BE(2)-M17 (M17) cell cultures were acquired from Sigma Aldrich (Catalogue #: 95011816). M17 cells were maintained in Opti-MEM reduced serum media supplemented with 10% fetal bovine serum (Bovogen, SFBSF) and passaged twice weekly. Cells were cultured at 37° C. in the presence of 5% CO2. Culture supplies were sourced from Thermo Fisher unless otherwise stated. A solution of ^57Fe isotope was prepared by dissolving ^57Fe metal (>95% enrichment, Trace Sciences International) in concentrated HCl to give a final concentration of 573 mM. From this master solution, a 10 mM working solution was prepared in sterile water. The working solution was used within two months of preparation. M17 cells were loaded with iron initially by seeding into 48-well plates at a density of 0.15×10^6 cells per well in 0.5 mL media. After 48 h, old media was discarded. Fresh media was added supplemented from the 10 mM ^57Fe working solution to yield media containing 20 μM ^57Fe isotope. Cells received 0.2 mL of this ^57Fe enriched media and were returned to the incubator for 20 h. The ability of experimental compounds to efflux iron was determined by the dissolution of compounds in DMSO and diluted in Hanks' Balanced Salt Solution (HBSS) for treatment of M17 cells. After ^57Fe incubation, cells were rinsed twice with HBSS and treated with 0.15 ml trial compound for 2 h. Experimental substances were routinely screened at a concentration of 20 μM, however dilutions ranging from 1-40 μM were occasionally applied to further elucidate the properties of key compounds. All assays included a relevant vehicle (0.4%-0.8% DMSO) as well as a positive control. Following the treatment period, 0.1 mL of media was collected from cells and the extracellular ^57Fe content was analysed via inductively coupled mass spectrometry (ICP-MS, Agilent 7700×series instrument). […] After 2 h the Fe levels in the media were measured and the increase determined as a percentage increase relative to the cell media in the absence of the compound. [formula] Representative data is provided in Table 1 where the % Fe efflux for the specified compounds of the invention lie in the following ranges: A<30%, B 30-100%, C 100-150%; D>150%
Turning to `Oc1ccccc1-c1nc(-c2ccccn2)n2c1CCCC2` [Compound 11, 2-(3-(Pyridin-2-yl)-5,6,7,8-tetrahydroimidazo[1,5-a]pyridin-1-yl)phenol], the activation at 20 µM is below 30%. On the same count and under the same terms, the result for `Oc1ccccc1-c1nc(-c2cccc(CN3CCOCC3)c2O)n2c1CCCC2` [Compound 12, 2-(1-(2-Hydroxyphenyl)-5,6,7,8-tetrahydroimidazo[1,5-a]pyridin-3-yl)-6-(morpholinomethyl)phenol] reads below 30%; that for `Cc1ccc(O)c(-c2nc(-c3cccc(F)c3O)n3c2CCC3)n1` [Compound 59, 2-(3-(3-Fluoro-2-hydroxyphenyl)-6,7-dihydro-5H-pyrrolo[1,2-c]imidazol-1-yl)-6-methylpyridin-3-ol], above 150%.

As to `Cc1ccc(O)c(-c2nc(-c3ccccc3O)c3n2CC(C)CC3)c1` (stereo not drawn) [Compound 37, 2-(1-(2-Hydroxyphenyl)-6-methyl-5,6,7,8-tetrahydroimidazo[1,5-a]pyridin-3-yl)-4-methylphenol], the activation at 20 µM is below 30%. Same read-out and setting: the result for `Oc1ccccc1-c1nc(-c2ccccc2O)n2c1CCCC2` [Compound 7, 2,2′-(5,6,7,8-tetraHydroimidazo[1,5-a]pyridine-1,3-diyl)diphenol] reads below 30%; that for `Cc1ccc(O)c(-c2nc(-c3cccc(F)c3O)n3c2CCCC3)n1` [Compound 2, 2-(3-(3-Fluoro-2-hydroxyphenyl)-5,6,7,8-tetrahydroimidazo[1,5-a]pyridin-1-yl)-6-methylpyridin-3-ol], above 150%. `Oc1ccccc1-c1nc(-c2cccnc2O)c2n1CCCC2` [Compound 15, 3-(3-(2-hydroxyphenyl)-5,6,7,8-tetrahydroimidazo[1,5-a]pyridin-1-yl)pyridin-2-ol]: the activation at 20 µM lay within 100 to 150%.

In the case of `Cc1ccc(O)c(-c2nc(-c3ccccc3O)n3c2CCC3)n1` [Compound 50, 2-(3-(2-Hydroxyphenyl)-6,7-dihydro-5H-pyrrolo[1,2-c]imidazol-1-yl)-6-methylpyridin-3-ol], the activation at 20 µM is above 150%. The same measure, in the same setting: for `Cc1ccc(O)c(-c2nc(-c3cccc(C)c3O)n3c2CCCC3)n1` [Compound 6, 2-(3-(2-Hydroxy-3-methylphenyl)-5,6,7,8-tetrahydroimidazo[1,5-a]pyridin-1-yl)-6-methylpyridin-3-ol] the value was 100 to 150%; for `Cc1ccc(O)c(-c2nc(-c3ccccc3O)c3n2CC(C(F)(F)F)CC3)c1` (stereo not drawn) [Compound 38, 2-(1-(2-Hydroxyphenyl)-6-(trifluoromethyl)-5,6,7,8-tetrahydroimidazo[1,5-a]pyridin-3-yl)-4-methylphenol], below 30%; for `Cc1ccc(O)c(-c2nc(-c3cccnc3O)c3n2CCCC3)c1` [Compound 13, 3-(3-(2-Hydroxy-5-methylphenyl)-5,6,7,8-tetrahydroimidazo[1,5-a]pyridine-1-yl)pyridine-2-ol], 100 to 150%. With `COC(=O)c1ccc(O)c(-c2nc(-c3ccccc3O)c3n2CCCC3)c1` [Compound 10, Methyl 4-hydroxy-3-(1-(2-hydroxyphenyl)-5,6,7,8-tetrahydroimidazo[1,5-a]pyridin-3-yl)benzoate], the activation at 20 µM is 30 to 100%. As for `Cc1ccc(O)c(-c2nc(-c3cc(F)ccc3O)n3c2CCCC3)n1` [Compound 3, 2-(3-(5-Fluoro-2-hydroxyphenyl)-5,6,7,8-tetrahydroimidazo[1,5-a]pyridin-1-yl)-6-methylpyridin-3-ol], the activation at 20 µM fell in the range of 100 to 150%. As for `CCN(CC)CCc1cccc(-c2nc(-c3ccncc3O)c3n2CCCC3)c1O` [Compound 22, 4-(3-(3-(2-(Diethylamino)ethyl)-2-hydroxyphenyl)-5,6,7,8-tetrahydroimidazo[1,5-a]pyridin-1-yl)pyridin-3-ol], the activation at 20 µM is 100 to 150%. Take `Cc1ccc(O)c(-c2nc(-c3c(O)cccc3F)n3c2CCCC3)n1` [Compound 4, 2-(3-(2-Fluoro-6-hydroxyphenyl)-5,6,7,8-tetrahydroimidazo[1,5-a]pyridin-1-yl)-6-methylpyridin-3-ol]: the activation at 20 µM fell in the range of 30 to 100%.

`Cc1ccc(O)c(-c2nc(-c3ccccc3O)c3n2CCCC3)c1` [Compound 8, 2-(1-(2-Hydroxyphenyl)-5,6,7,8-tetrahydroimidazo[1,5-a]pyridin-3-yl)-4-methylphenol]: the activation at 20 µM is below 30%. For the compound `Cc1ccc(O)c(-c2nc(-c3ccccc3O)n3c2CCCC3)n1` [Compound 1, 2-(3-(2-Hydroxyphenyl)-5,6,7,8-tetrahydroimidazo[1,5-a]pyridin-1-yl)-6-methylpyridin-3-ol], the activation at 20 µM was above 150%. Turning to `Oc1ccccc1-c1nc(-c2c(O)cccc2F)n2c1CCCC2` [Compound 9, 3-Fluoro-2-(1-(2-hydroxyphenyl)-5,6,7,8-tetrahydroimidazo[1,5-a]pyridin-3-yl)phenol], the activation at 20 µM was below 30%. On to `Oc1ccncc1-c1nc(-c2cccc(F)c2O)n2c1CCCC2` [Compound 30, 3-(3-(3-Fluoro-2-hydroxyphenyl)-5,6,7,8-tetrahydroimidazo[1,5-a]pyridin-1-yl)pyridin-4-ol], for which the activation at 20 µM is above 150%. Take `Oc1ccncc1-c1nc(-c2ccccc2O)n2c1CCCC2` [Compound 29, 3-(3-(2-Hydroxyphenyl)-5,6,7,8-tetrahydroimidazo[1,5-a]pyridin-1-yl)pyridin-4-ol]: the activation at 20 µM was in the range of 100 to 150%. Take `Oc1ccccc1-c1nc(-c2ccccc2O)n2c1CCC(C(F)(F)F)C2` (stereo not drawn) [Compound 36, 2,2′-(6-(Trifluoromethyl)-5,6,7,8-tetrahydroimidazo[1,5-a]pyridine-1,3-diyl)diphenol]: the activation at 20 µM was below 30%. As for `Cc1ccc(O)c(-c2nc(-c3nc(C)ccc3O)c3n2CCCC3)c1` [Compound 5, 2-(3-(2-Hydroxy-5-methylphenyl)-5,6,7,8-tetrahydroimidazo[1,5-a]pyridin-1-yl)-6-methylpyridin-3-ol], the activation at 20 µM was above 150%. On to `Oc1ncccc1-c1nc(-c2cccc(Cl)c2O)n2c1CCCC2` [Compound 14, 3-(3-(3-Chloro-2-hydroxyphenyl)-5,6,7,8-tetrahydroimidazo[1,5-a]pyridin-1-yl)pyridin-2-ol], for which the activation at 20 µM is 100 to 150%.

The same test, now with this note: M17 cells pre-loaded with 57Fe; compound 20 μM, 2 h; Fe in media as percentage increase relative to cell media in the absence of the compound.
Regarding `Oc1cnccc1-c1nc(-c2ccccc2O)n2c1CCCC2` [Compound 21, 4-(3-(2-Hydroxyphenyl)-5,6,7,8-tetrahydroimidazo[1,5-a]pyridin-1-yl)pyridin-3-ol], the “% Fe Efflux Range” value was “D (D>150%)”.
